Measured values taken from ChEMBL document CHEMBL1201862, “PubChem BioAssay data set” (2004).
Calls of active or inactive are those of the source.

How the values were obtained:
[1] = target: Voltage-gated inwardly rectifying potassium channel KCNH2 (Homo sapiens, UniProt Q12809); assay: hERG protection from proarrhythmic block, potency, dose response, cell-based, thallium flux (AID 2121); assay type: ADME
[2] = Luminescence Cell-Based Dose Confirmation HTS to Identify Activators of 5'UTR Stem-Loop Driven Alpha-Synuclein mRNA Translation in H4 Neuroglioblastoma Cells. [Related pubchem assays: 1829 (Project Summary), 1814 (Primary HTS)]; assay type: functional
[3] = Luminescence Cell-Based Dose Response HTS to Identify Activators of Luciferase Translation or Activity in H4 […] Cells. [Related pubchem assays: 1829 (Project Summary), 1814 (Primary HTS)]; assay type: functional
[4] = Luminescence Cell-Based Dose Confirmation to Identify Activators of 5'UTR Stem-Loop Driven Alpha-Synuclein mRNA Translation in H4 Neuroglioblastoma Cells. [Related pubchem assays: 1829 (Project Summary), 1814 (Primary HTS)]; assay type: functional
H4 = assay: Luminescence Cell-Based Dose Response HTS to Identify Activators of 5'UTR Stem-Loop Driven Prion Protein mRNA Translation in H4 Neuroglioblastoma Cells. [Related pubchem assays: 1829 (Project Summary), 1814 (Primary HTS)]; assay type: functional; conditions: Homo sapiens
[5] = Luminescence Cell-Based Dose Response to Identify Activators of Luciferase Translation or Activity in H4-C Neuroglioblastoma Cells. [Related pubchem assays: 1829 (Project Summary), 1814 (Primary HTS)]; assay type: functional
[6] = Luminescence Cell-Based Dose Response to Identify Activators of 5'UTR Stem-Loop Driven Prion Protein mRNA Translation in H4-C Neuroglioblastoma Cells. [Related pubchem assays: 1829 (Project Summary), 1814 (Primary HTS)]; assay type: functional
Vero [7] = assay: host cell cytotoxicity of antiviral hits, dose response, cytotoxicity control for West Nile virus antiviral project, secondary assay (AID 1650); assay type: functional; conditions: Chlorocebus sabaeus
Genome polyprotein = Genome polyprotein (dengue virus type 2, UniProt P29990); assay: Dengue-2 NS5 methyltransferase inhibitors, primary screen, biochemical, confirmation dose response (AID 588689); assay type: functional
[8] = target: T1, Replicative DNA helicase DnaB (Mycobacterium tuberculosis, UniProt P9WMR3); assay: DnaB intein splicing inhibitors, dose response, biochemical, cell-free fluorescence (AID 449749); assay type: functional
T1 sequence (P9WMR3 whole entry): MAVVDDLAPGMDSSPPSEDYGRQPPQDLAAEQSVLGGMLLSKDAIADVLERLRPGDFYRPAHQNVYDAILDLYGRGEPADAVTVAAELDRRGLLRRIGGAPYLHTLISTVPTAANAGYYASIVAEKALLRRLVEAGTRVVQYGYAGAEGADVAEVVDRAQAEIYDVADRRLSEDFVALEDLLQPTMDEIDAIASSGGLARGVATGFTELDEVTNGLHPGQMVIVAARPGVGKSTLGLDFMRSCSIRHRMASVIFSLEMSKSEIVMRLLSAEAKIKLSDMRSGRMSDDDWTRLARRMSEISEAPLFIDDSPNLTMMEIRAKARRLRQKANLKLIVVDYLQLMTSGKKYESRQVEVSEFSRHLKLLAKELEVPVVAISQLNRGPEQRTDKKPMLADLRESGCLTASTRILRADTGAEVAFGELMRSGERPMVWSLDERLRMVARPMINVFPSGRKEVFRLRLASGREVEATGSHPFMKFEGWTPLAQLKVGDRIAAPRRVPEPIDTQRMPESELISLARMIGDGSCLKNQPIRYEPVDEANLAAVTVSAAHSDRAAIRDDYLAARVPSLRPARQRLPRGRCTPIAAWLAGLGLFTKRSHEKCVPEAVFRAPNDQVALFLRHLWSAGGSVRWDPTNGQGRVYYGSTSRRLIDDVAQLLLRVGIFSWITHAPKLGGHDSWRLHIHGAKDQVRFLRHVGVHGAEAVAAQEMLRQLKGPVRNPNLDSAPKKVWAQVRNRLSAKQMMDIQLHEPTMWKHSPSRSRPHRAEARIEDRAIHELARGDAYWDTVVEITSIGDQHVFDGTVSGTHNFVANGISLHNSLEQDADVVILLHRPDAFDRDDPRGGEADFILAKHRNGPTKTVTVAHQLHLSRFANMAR

Vero [9] = assay: cells; assay type: functional; conditions: Chlorocebus sabaeus
[10] = target: T2, Heat shock factor protein 1 (Mus musculus, UniProt P38532); assay: HSF1 potentiators in luciferase reporter cells, confirmation, cell-based, NIH3T3, luminescence, dose retest (AID 435004); assay type: functional;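 further: stress induced by proteasome inhibitor MG132 added 30 min after compound; luciferase reporter driven by HSF1 response element in NIH3T3 cells; actives raise luminescence as potentiators of the MG132 stress response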
T2 sequence (P38532 whole entry): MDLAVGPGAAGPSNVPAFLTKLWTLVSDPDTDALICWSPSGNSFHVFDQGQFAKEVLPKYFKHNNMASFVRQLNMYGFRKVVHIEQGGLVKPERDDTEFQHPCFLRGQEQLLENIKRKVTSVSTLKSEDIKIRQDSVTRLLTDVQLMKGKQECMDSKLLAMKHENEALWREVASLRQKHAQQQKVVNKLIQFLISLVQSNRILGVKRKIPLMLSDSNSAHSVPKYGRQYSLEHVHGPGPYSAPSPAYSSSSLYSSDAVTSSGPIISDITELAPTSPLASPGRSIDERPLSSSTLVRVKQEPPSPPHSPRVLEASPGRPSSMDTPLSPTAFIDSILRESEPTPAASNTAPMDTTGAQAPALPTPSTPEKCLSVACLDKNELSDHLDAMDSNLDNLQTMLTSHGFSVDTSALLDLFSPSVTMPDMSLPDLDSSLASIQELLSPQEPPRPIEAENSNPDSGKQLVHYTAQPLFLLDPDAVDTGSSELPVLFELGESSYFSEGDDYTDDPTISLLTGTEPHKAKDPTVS

Vero [11] = assay: Vero cell cytotoxicity, cytotoxicity control for flavivirus capping enzyme inhibitors (AID 588742); assay type: functional; conditions: Chlorocebus sabaeus
[12] = Luminescent dose response cell-based high throughput screening assay for inhibitors of the Janus kinase 2 mutant JAK2V617F. [Related pubchem assays: 1446 (Primary screen.), 1521 (Confirmation assay.), 1486 (Counter screen.)]; assay type: functional
Protein RecA = target: T3, Protein RecA (Mycobacterium tuberculosis, UniProt P9WHJ3); assay: Fluorescence Cell-Free Homogeneous Dose Retest to Identify Inhibitors of RecA-Intein Splicing Activity. [Related pubchem assays (depositor defined):AID2097, AID2223, AID489010, AID492950]; assay type: functional
T3 sequence (P9WHJ3 whole entry): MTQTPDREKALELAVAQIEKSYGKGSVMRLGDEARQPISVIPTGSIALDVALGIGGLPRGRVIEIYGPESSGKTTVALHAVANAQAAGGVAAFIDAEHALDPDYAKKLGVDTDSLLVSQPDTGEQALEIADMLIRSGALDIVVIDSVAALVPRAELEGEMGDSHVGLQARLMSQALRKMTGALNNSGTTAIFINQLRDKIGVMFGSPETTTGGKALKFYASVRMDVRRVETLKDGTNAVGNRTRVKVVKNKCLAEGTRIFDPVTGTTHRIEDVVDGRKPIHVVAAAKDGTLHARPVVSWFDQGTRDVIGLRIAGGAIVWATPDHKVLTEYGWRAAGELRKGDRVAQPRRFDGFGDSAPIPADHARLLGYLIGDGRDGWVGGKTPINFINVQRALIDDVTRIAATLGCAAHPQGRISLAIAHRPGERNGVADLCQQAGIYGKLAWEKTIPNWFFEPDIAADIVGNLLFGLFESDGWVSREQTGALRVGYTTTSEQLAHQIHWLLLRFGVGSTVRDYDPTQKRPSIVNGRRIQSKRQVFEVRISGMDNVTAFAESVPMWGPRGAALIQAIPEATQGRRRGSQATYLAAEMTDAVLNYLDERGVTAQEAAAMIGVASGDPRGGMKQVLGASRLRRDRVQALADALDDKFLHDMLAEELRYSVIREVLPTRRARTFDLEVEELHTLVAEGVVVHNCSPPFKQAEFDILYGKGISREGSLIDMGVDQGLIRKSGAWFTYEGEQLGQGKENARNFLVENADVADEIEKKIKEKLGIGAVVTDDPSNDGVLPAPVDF

[13] = Luminescence Cell-Based Dose Retest to Confirm Inhibitors of Cancer Stem Cells. [Related pubchem assays (depositor defined):AID2717, AID2721]; assay type: functional; conditions: Homo sapiens
Vero [14] = assay: cells; assay type: functional, cell-based; conditions: Chlorocebus sabaeus
[15] = target: Peroxisome proliferator-activated receptor gamma/Nuclear receptor corepressor 2 (Homo sapiens, UniProt P37231+Q9Y618); assay: Counterscreen for NR2E3 inverse agonists: TR-FRET-based biochemical high throughput dose response assay to identify inverse agonists of the interaction between peroxisome proliferator-activated receptor gamma (PPARg) and nuclear receptor co-repressor 2 (NCOR2).; assay type: functional
Sequence of Peroxisome proliferator-activated receptor gamma/Nuclear receptor corepressor 2 (P37231 whole entry): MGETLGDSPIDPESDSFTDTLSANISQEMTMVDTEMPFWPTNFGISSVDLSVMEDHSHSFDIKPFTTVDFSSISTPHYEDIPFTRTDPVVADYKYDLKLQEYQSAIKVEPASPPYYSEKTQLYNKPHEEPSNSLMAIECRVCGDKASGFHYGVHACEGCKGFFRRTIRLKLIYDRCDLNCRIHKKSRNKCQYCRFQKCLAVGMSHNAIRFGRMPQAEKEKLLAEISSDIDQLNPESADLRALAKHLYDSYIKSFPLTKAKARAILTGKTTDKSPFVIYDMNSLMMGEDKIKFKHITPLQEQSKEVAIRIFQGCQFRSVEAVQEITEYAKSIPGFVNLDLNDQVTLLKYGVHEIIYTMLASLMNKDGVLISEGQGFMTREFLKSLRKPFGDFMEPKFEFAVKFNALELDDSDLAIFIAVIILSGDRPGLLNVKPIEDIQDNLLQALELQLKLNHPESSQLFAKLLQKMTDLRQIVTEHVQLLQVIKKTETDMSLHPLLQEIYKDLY
Sequence of Peroxisome proliferator-activated receptor gamma/Nuclear receptor corepressor 2 (Q9Y618 whole entry): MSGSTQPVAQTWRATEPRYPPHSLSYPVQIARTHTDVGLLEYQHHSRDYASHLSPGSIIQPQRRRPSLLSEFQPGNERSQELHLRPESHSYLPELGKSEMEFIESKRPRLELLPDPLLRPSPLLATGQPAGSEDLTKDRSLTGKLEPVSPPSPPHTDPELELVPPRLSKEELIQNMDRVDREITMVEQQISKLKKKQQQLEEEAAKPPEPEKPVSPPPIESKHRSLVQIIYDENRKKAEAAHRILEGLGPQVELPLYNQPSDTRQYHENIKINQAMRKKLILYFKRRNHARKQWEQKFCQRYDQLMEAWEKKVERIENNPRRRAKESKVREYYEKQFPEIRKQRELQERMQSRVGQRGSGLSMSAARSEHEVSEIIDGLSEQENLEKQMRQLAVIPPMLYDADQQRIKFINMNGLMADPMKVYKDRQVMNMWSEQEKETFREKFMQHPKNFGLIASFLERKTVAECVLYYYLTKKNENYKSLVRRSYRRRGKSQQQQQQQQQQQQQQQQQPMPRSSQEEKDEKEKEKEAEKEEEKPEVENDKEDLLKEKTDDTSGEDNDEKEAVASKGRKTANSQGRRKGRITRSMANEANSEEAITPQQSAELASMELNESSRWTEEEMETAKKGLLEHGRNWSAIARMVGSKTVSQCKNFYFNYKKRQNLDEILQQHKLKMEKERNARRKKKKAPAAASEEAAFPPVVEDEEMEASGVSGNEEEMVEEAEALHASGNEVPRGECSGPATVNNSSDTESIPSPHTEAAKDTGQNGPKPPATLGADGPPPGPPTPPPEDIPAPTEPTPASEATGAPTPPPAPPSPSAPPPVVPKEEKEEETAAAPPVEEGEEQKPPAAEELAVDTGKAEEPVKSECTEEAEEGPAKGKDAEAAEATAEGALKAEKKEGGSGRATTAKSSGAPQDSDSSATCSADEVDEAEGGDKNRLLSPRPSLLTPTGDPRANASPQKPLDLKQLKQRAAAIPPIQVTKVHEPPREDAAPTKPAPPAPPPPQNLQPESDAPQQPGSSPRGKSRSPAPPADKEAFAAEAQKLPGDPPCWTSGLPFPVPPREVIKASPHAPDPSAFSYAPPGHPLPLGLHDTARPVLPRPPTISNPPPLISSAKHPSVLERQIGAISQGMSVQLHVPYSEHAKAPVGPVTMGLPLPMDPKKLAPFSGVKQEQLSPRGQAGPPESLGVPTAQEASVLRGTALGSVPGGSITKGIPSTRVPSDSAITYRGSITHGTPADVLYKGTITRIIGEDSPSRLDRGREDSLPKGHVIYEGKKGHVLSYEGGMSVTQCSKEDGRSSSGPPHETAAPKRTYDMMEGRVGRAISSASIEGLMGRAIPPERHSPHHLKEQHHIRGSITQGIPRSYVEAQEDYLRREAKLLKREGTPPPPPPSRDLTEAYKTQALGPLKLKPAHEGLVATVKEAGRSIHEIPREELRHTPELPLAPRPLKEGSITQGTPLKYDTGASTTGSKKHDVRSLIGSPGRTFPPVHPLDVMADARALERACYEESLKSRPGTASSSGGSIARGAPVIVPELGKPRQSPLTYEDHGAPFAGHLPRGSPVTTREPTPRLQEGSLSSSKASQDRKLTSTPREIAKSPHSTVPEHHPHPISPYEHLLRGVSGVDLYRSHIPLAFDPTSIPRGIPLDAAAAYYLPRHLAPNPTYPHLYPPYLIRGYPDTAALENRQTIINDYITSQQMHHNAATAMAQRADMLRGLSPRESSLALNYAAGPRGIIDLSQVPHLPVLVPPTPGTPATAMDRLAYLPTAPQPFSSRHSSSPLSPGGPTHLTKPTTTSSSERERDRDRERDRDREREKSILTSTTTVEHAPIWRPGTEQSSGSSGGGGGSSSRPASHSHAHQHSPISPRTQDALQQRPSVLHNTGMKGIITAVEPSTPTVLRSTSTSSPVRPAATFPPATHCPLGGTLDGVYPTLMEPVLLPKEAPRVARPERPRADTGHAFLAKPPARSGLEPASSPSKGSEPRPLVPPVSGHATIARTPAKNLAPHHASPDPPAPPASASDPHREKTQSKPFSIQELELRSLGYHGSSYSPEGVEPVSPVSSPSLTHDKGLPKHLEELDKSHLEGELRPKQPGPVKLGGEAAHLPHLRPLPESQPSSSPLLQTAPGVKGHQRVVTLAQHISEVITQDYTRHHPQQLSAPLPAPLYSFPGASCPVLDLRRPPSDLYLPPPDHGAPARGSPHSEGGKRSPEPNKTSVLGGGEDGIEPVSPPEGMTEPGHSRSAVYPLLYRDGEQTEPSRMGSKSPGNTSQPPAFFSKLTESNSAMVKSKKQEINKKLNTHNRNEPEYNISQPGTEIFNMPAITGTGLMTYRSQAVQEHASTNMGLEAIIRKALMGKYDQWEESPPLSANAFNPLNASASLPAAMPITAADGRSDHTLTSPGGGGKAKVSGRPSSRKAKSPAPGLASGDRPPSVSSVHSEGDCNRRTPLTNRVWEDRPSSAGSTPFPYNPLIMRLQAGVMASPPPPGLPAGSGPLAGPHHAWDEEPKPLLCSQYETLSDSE

[16] = target: Peroxisome proliferator-activated receptor gamma/Nuclear receptor coactivator 1 (Homo sapiens, UniProt P37231); assay: TR-FRET dose response biochemical High Throughput Screening assay for agonists of the steroid receptor coactivator 1 (SRC-1) recruitment by the peroxisome proliferator-activated receptor gamma (PPAR gamma): non-selective agonists. [Related pubchem assays (depositor defined):AID1300, AID1808, AID504735, AID631]; assay type: protein assay
Sequence of Peroxisome proliferator-activated receptor gamma/Nuclear receptor coactivator 1 (P37231 whole entry): as the sequence (P37231 whole entry) above
Sequence of Peroxisome proliferator-activated receptor gamma/Nuclear receptor coactivator 1 (Q15788 whole entry, further chain): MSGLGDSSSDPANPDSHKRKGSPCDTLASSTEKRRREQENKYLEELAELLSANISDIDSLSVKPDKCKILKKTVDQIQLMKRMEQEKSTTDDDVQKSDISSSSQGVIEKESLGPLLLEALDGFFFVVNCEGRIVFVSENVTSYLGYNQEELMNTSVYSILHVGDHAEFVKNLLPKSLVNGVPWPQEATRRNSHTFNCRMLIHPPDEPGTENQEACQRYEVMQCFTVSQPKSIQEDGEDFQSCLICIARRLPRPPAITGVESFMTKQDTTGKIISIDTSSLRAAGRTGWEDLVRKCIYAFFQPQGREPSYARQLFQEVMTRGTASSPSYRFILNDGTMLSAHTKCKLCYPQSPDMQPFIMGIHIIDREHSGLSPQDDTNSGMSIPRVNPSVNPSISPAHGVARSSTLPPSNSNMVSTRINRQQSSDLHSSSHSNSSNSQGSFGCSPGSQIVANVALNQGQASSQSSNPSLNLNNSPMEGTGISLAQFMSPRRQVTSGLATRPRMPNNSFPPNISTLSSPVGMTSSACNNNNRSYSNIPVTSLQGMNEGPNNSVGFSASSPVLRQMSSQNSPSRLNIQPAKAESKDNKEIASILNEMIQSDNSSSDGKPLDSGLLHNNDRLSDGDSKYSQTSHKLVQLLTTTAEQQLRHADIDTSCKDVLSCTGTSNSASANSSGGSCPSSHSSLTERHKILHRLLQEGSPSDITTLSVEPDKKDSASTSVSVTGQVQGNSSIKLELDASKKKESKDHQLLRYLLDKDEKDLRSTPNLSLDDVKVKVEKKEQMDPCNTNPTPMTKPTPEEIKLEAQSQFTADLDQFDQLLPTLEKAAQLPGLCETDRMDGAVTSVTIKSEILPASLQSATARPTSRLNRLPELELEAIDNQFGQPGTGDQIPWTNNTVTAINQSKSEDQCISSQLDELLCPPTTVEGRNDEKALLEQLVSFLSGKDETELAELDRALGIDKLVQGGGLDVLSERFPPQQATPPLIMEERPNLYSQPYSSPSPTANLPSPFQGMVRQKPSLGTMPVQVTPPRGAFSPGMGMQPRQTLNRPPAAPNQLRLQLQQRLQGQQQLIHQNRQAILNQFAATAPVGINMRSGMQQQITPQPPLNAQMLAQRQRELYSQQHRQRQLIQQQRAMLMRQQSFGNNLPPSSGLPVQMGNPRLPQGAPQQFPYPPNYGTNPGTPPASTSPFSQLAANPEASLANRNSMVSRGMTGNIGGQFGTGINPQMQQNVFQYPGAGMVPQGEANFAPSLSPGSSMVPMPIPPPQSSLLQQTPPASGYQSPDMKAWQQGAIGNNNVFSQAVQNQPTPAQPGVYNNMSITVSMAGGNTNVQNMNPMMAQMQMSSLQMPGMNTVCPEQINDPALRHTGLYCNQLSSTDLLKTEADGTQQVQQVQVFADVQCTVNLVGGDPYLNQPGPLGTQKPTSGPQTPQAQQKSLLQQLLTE

[17] = target: Peroxisome proliferator-activated receptor gamma/Nuclear receptor coactivator 3 (Homo sapiens, UniProt P37231); assay: TR-FRET dose response biochemical High Throughput Screening assay for agonists of the steroid receptor coactivator 3 (SRC-3) recruitment by the peroxisome proliferator-activated receptor gamma (PPAR gamma): non-selective agonists. [Related pubchem assays: 1301 (Confirmation screen.), 1048 (Primary screen.)]; assay type: functional
[18] = target: Peroxisome proliferator-activated receptor gamma/Nuclear receptor coactivator 2 (Homo sapiens, UniProt P37231); assay: TR-FRET dose response biochemical High Throughput Screening assay for agonists of the steroid receptor coactivator 2 (SRC-2) recruitment by the peroxisome proliferator-activated receptor gamma (PPAR gamma): non-selective agonists. [Related pubchem assays: 1297, 1032 ]; assay type: functional
[19] = target: Photoreceptor-specific nuclear receptor (Homo sapiens, UniProt Q9Y5X4); assay: NR2E3 inverse agonists, dose response, biochemical, TR-FRET (AID 463256); assay type: functional
[20] = target: T4, Aryl hydrocarbon receptor (Homo sapiens, UniProt P35869); assay: Luminescence-based cell-based high throughput dose response assay for activators of the Aryl Hydrocarbon Receptor (AHR). [Related pubchem assays: 2796 (Primary screen (AHR activators in singlicate)), 2845 (Confirmation screen (AHR activators in triplicate)), 434939 (Counterscreen (PXR activators in triplicate)), 2804 (Summary (AHR activators))]; assay type: ADME
T4 sequence (P35869 whole entry): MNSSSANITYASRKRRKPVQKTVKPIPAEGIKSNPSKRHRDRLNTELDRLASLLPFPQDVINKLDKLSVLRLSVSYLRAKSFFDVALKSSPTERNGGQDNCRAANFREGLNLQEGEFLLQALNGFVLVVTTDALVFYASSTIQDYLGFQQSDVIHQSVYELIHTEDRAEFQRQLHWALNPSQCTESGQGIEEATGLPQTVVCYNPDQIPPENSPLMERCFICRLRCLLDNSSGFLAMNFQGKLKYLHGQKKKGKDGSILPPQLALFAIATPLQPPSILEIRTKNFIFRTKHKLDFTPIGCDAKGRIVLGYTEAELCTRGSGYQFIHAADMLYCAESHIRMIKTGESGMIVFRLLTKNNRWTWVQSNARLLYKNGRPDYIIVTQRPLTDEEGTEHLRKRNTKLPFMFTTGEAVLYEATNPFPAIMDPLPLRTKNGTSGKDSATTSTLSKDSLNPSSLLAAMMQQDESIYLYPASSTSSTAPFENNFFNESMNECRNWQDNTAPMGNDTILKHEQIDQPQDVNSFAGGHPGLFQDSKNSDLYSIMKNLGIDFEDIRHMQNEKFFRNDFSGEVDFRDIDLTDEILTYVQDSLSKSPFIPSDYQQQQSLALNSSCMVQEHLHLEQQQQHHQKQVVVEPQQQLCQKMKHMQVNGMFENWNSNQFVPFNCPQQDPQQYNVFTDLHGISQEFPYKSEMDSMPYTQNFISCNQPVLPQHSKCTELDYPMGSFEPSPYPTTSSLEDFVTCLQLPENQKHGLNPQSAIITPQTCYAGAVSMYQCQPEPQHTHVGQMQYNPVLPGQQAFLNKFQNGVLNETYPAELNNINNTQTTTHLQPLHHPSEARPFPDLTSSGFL

[21] = target: Protein-tyrosine kinase 2-beta (Homo sapiens, UniProt Q14289);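 further: potency of inhibitors of PYK2 kinase phosphorylation of poly-GT substrate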
Bcl-2-related protein A1 [22] = target: T5, Bcl-2-related protein A1 (Mus musculus, UniProt Q07440); assay: Bfl-1 inhibitors blocking BH3 peptide binding, confirmation, biochemical, TR-FRET, mouse Bfl-1 (AID 621);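 further: TR-FRET binding of GST-Bfl-1 to FITC-labelled Bid peptide via terbium antibody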
T5 sequence (Q07440 whole entry): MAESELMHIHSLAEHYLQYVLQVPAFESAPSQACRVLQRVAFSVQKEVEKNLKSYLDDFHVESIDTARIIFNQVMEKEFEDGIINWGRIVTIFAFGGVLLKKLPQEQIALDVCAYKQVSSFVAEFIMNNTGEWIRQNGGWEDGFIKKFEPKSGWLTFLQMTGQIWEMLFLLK

Bcl-2-related protein A1 [23] = target: T5, Bcl-2-related protein A1; assay: Bfl-1 binding inhibitors, SAR follow-up, biochemical, fluorescence polarization (AID 1070)
[24] = target: Glyceraldehyde-3-phosphate dehydrogenase (Homo sapiens, UniProt P04406)

COc1ccc(C(=O)CC(=O)C(=O)Nc2ccccc2OC)cc1
EC50 [1]: 8.33 µM (active)

NNc1nc2c(F)cccc2s1
EC50 [2]: < 100 nM (active)
EC50 [3]: 5.67 µM (active)
EC50 [4]: > 12 µM (not active)
EC50 (H4): > 120 µM (not active)
EC50 [5]: > 12 µM (not active)
EC50 [6]: > 12 µM (not active)

Cc1ccc(NC(=O)C(=Cc2ccc(C(=O)O)cc2)C(=O)Nc2ccc(C)cc2C)c(C)c1
CC50 (Vero [7]): 7.51 µM (active)
IC50 (Genome polyprotein): > 100 µM (active)
AC50 [8]: 2.51 µM (active)
CC50 (Vero [9]): 9.83 µM (active)
EC50 [10]: 6.71 µM (active)
CC50 (Vero [11]): 27.3 µM (active)
IC50 [12]: 1.95 µM (active)
EC50 (Protein RecA): 3.21 µM (active)
AC50 [13]: 1.9 µM (active)
IC50 (Vero [14]): 19.6 µM (active)

Cc1cc2nc(-c3ccc(SCC(=O)Nc4ccc(S(=O)(=O)N5CCCC5)cc4)nc3)[nH]c2cc1C
IC50 [15]: 2.07 µM (active)
EC50 [16]: 11.6 µM (inactive)
EC50 [17]: > 79.4 µM (not active)
EC50 [18]: 11.1 µM (not active)
IC50 [19]: > 39.8 µM (not active)

O=C(Nc1cccc(Cl)c1)c1cccnn1
EC50 [20]: 583 nM (active)

CCN(CC)S(=O)(=O)c1cc([N+](=O)[O-])ccc1NNC(=O)Nc1ccccc1
IC50 [21]: > 69.5 µM (not active)

O=C1C(Cl)=C(Cl)C(=O)N1c1cccc(Cl)c1Cl
IC50 (Bcl-2-related protein A1 [22]): 500 nM (active)
IC50 (Bcl-2-related protein A1 [23]): 979 nM (active)
IC50 [24]: > 100 µM (not active)
